Reference: US12637464B2, “Tetracyclic compounds for treating brain disorders” (The Regents of the University of California, priority 2021, dated 2026)

Assays:
PSYLI2 cells = assay: PsychLight assays (agonist and antagonist mode); format: cell-based; conditions: FIG. 3C-3E; agonist mode concentration-response, antagonist mode 1 μM
Experimental: PsychLight Assays. Psychlight assays were performed using a previously published method. Briefly, glass bottom 96-well plates were coated with 50 μg/mL of poly-D-lysine overnight at room temperature and then washed with Dulbecco's PBS. PSYLI2 cells were suspended in DMEM containing 10% FBS with 5% penicillin-streptomycin, plated at a density of 40,000 cells/well, and incubated (37° C., 5% CO2) for 24 h prior to each experiment. Immediately before an experiment, stock solutions of drugs in DMSO were diluted 1:100 in imaging media distributed across an empty 96-well plate (treatment plate) following a randomized plate map. The imaging media consisted of 1×HBSS containing […] and […]. […] Data were from 2 plates with 2-3 wells being analyzed per plate. […]
Once imaging was complete, the images were exported, and analyzed using a custom Python script. […] The mask was generated by calculating the average fluorescence intensity for the entire image and using that value as a threshold. […] The % ΔF/F values for each well were calculated using the following equation: […]
Once imaging was complete, the images were exported, and analyzed using a custom Python script. […] The mask was generated by calculating the average fluorescence intensity for the entire image and using that value as a threshold. […]

[1] = tested on: dendritic spine density in the PFC; assay: In vivo spinogenesis (electron microscopy); design: species or system C57BL/6J mice; conditions: single dose 1 mg/kg, 24 h after administration, 3 animals per group
Experimental: In Vivo Spinogenesis. Female C57BL/6J mice (Jackson Laboratory, Sacramento, C.A.) were treated with VEH (saline) or (+)-JRT (n=3/group). After 24 h, the animals were sacrificed via transcardial perfusion with oxygenated Ringer's solution followed by a fixative (2% paraformaldehyde, 2.5% glutaraldehyde, 3 mM calcium chloride in 0.1 M cacodylate buffer). Brains were carefully removed from the skull and post-fixed overnight in the same fixative. Brains were then rinsed with PBS and 100 μm coronal sections spanning the prefrontal cortex were collected using a vibrating microtome (Leica). Regions of the infralimbic cortex were microdissected according to the Allen brain atlas and processed further for electron microscopy. Briefly, samples were stained with buffered 1.5% reduced osmium tetroxide for 45 minutes, rinsed thoroughly, further stained with 1% aqueous uranyl acetate overnight at 4° C., dehydrated and embedded in Eponate 12 epoxy resin. A blockface that spanned from the medial cortical surface to the corpus collosum was trimmed and 150-250 serial ultrathin sections (55 nm) were collected onto silicon chips using diamond knives (Diatome) on an ultramicrotome (Leica). Serial sections on silicon chips were loaded into the scanning electron microscope (SEM; Zeiss Sigma VP) for imaging. […] Dendritic spine densities (spines/micron) were calculated for each volume.

C57BL/6J mice = assay: Amphetamine induced locomotion; format: in vivo, mouse; conditions: pretreatment 1 mg/kg
Experimental: Amphetamine Induced Locomotion. The amphetamine-induced hyperlocomotion assay was performed using male and female C57BL/6J mice that were approximately 8 weeks old at the time of the experiments. Animals were first placed in the test arena (40 cm×40 cm) for 15 min to obtain a basal reading of locomotion and habituate them to the testing arena. Next, animals were administered (+)-JRT (1 mg/kg) or VEH (2.5 mL/kg, i.p) and placed back in the test arena. After 15 min, the animals were administered D-amphetamine (3 mg/kg) or VEH (2.5 mL/kg) and placed back in the test arena for 60 minutes. Locomotion during the entire experiment was quantified using ANYmaze Video Tracking System, version 7.07 (Stoelting Co.).

## CCN(CC)C(=O)[C@@H]1C=C2c3cccc4ccn(c34)C[C@H]2N(C)C1 [(+)-JRT]
PSYLI2 cells
  hallucinogenic potential (psychLight): low hallucinogenic potential
[1]
  dendritic spine density in the PFC: increases dendritic spine density
C57BL/6J mice
  AMPH-induced hyperlocomotion, female mice: can block
